From patent publication US9834558B2, “Substituted bridged urea analogs as sirtuin modulators” (GLAXOSMITHKLINE LLC, priority 2013, dated 2017)
Blank lines part the entries; values can stand above or below the compound they belong to.

Target: T1, SIRT1 (Homo sapiens, UniProt Q96EB6)
T1 sequence (Q96EB6 1-747): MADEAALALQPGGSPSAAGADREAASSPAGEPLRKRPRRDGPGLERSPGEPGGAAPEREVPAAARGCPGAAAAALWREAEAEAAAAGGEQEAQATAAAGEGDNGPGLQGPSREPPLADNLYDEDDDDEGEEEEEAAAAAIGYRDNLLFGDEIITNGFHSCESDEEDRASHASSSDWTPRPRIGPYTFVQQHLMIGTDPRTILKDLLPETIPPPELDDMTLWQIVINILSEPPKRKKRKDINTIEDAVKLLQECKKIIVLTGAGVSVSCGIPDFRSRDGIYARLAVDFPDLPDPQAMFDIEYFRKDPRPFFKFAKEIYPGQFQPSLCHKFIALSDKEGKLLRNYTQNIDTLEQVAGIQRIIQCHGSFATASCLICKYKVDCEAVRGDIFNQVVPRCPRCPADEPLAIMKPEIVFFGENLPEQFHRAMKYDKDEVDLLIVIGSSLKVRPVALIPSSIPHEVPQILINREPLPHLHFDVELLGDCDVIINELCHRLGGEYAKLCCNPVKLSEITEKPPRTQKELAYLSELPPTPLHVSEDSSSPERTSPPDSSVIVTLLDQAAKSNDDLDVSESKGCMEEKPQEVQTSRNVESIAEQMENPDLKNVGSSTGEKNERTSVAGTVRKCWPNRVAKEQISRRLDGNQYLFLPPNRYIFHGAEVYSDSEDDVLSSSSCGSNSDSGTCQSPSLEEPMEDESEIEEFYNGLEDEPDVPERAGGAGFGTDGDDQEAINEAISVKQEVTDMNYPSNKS
Assay: Trp mass spectrometry assay of SIRT1 activation
Format: biochemical
Details: for TRP Activity (EC1.5) / Emax: Trp peptide assay; for TRP Activity (EC1.5): EC1.5 = concentration that results in 150% activation of SIRT1; for Emax: maximum activity relative to control (100%), read-out: TRP MAX RESP (percent maximum fold activation)
Method in brief: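 Activation read-out: mass-spec measurement of O-acetyl-ADP-ribose or deacetylated Trp peptide versus compound-free controls, giving EC1.5 and Percent Maximum Activation. Reactions ran 25 min at 25 °C, pH 7.5, with 120 μM βNAD+, 0.5 μM acetylated p53-derived peptide and 10 nM His-tagged SIRT1.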

[1] = Trp mass spectrometry assay, EC1.5 = concentration of test compound that results in 150% activation of SIRT1
[2] = Trp peptide substrate, concentration giving 150% activation of SIRT1
[3] = Trp mass spectrometry assay, concentration of test compound giving 150% activation of SIRT1
[4] = concentration giving 150% activation of SIRT1, Trp peptide substrate

Tryp AVG EC1.5 (μM) [1]: B (B (EC1.5 1-25 μM))
SMILES: O=C(NCCc1ccccn1)N1c2nc(-c3cccc(C(F)(F)F)c3)ccc2N2CC[C@H]1C2 [Example 614]

Tryp AVG EC1.5 (μM) [2]: B (B (EC1.5 1-25 μM))
SMILES: O=C(Nc1ccncc1Cl)N1c2nc(-c3cccc(C(F)(F)F)c3)ccc2N2CC[C@H]1C2 [Example 96]

Tryp AVG EC1.5 (μM) [3]: B (B (EC1.5 1-25 μM))
SMILES: Cn1cc(-c2ccc3c(n2)N(C(=O)Nc2ccccn2)[C@H]2CCN3C2)cn1 [Example 349]

Tryp AVG EC1.5 (μM) [4]: B (B (EC1.5 1-25 μM))
SMILES: O=C(NCCCn1ccnc1)N1c2nc(-c3cccc(C(F)(F)F)c3)ccc2N2CC[C@H]1C2 [Example 627]

TRP Activity (EC1.5): C (C (EC1.5>25 μM)) | Emax: < 150%
SMILES: N#Cc1ccc(-c2ccc3c(n2)N(C(=O)Nc2cnccn2)[C@H]2CCN3C2)cn1 [(9S)-5-(6-cyanopyridin-3-yl)-N-(pyrazin-2-yl)-1,6,8-triazatricyclo[7.2.1.0 {2,7}]dodeca-2,4,6-triene-8-carboxamide]

TRP Activity (EC1.5): A (A (EC1.5<1 μM)) | Emax: > 150%
SMILES: CCc1cncc(NC(=O)N2c3nc(-c4ccnc(C)c4)ccc3N3CC[C@H]2C3)n1 [(9S)-N-(6-ethylpyrazin-2-yl)-5-(2-methylpyridin-4-yl)-1,6,8-triazatricyclo[7.2.1.0 {2,7}]dodeca-2(7),3,5-triene-8-carboxamide]

TRP Activity (EC1.5): A (A (EC1.5<1 μM)) | Emax: > 150%
SMILES: CC(C)c1cc(-c2ccc3c(n2)N(C(=O)Nc2cnccn2)[C@H]2CCN3C2)ccn1 [(9S)-5-[2-(propan-2-yl)pyridin-4-yl]-N-(pyrazin-2-yl)-1,6,8-triazatricyclo[7.2.1.0 {2,7}]dodeca-2,4,6-triene-8-carboxamide]

Tryp AVG EC1.5 (μM) [3]: A (A (EC1.5<1 μM))
SMILES: O=C(Nc1ccncc1)N1c2nc(-c3cccc(Cl)c3)ccc2N2CCC[C@H]1C2 [Example 409]

Tryp AVG EC1.5 (μM) [4]: A (A (EC1.5<1 μM))
SMILES: NCCCc1ccc(NC(=O)N2c3nc(-c4cccc(C(F)(F)F)c4)ccc3N3CCC[C@H]2C3)cc1-c1cnco1 [Example 767]

Tryp AVG EC1.5 (μM) [1]: A (A (EC1.5<1 μM))
SMILES: Cn1nccc1-c1cccc(NC(=O)N2c3nc(-c4cccc(C(F)(F)F)c4)ccc3N3CC[C@H]2C3)n1 [Example 623]

Tryp AVG EC1.5 (μM) [1]: A (A (EC1.5<1 μM))
SMILES: O=C(Nc1cccc(-c2cnco2)c1)N1c2nc(-c3cccc(C(F)(F)F)c3)ccc2N2CCC1CC2 [Example 473]

Tryp AVG EC1.5 (μM) [1]: B (B (EC1.5 1-25 μM))
SMILES: CS(=O)(=O)Nc1cccc(-c2ccc3c(n2)N(C(=O)Nc2cnccn2)[C@H]2CCN3C2)c1 [Example 418]

Tryp AVG EC1.5 (μM) [3]: B (B (EC1.5 1-25 μM))
SMILES: CN(C)c1cccc(-c2ccc3c(n2)N(C(=O)Nc2ccc(F)cn2)[C@H]2CCCN3C2)c1 [Example 384]

Tryp AVG EC1.5 (μM) [1]: B (B (EC1.5 1-25 μM))
SMILES: O=C(Nc1ccncn1)N1c2nc(-c3cccnc3)ccc2N2CCC[C@H]1C2 [Example 456]

Tryp AVG EC1.5 (μM) [2]: B (B (EC1.5 1-25 μM))
SMILES: Cc1cc(OCC(O)CO)nc(NC(=O)N2c3nc(-c4cccc(C(F)(F)F)c4)ccc3N3CC[C@H]2C3)n1 (stereo partly shown) [Example 26]

TRP Activity (EC1.5): A (A (EC1.5<1 μM)) | Emax: > 150%
SMILES: Cc1cc(-c2ccc3c(n2)N(C(=O)Nc2cnccn2)[C@H]2CCN3C2)cc(C(F)(F)F)n1 [(9S)-5-[2-methyl-6-(trifluoromethyl)pyridin-4-yl]-N-(pyrazin-2-yl)-1,6,8-triazatricyclo[7.2.1.0 {2,7}]dodeca-2(7),3,5-triene-8-carboxamide]

Tryp AVG EC1.5 (μM) [1]: B (B (EC1.5 1-25 μM))
SMILES: O=C(Nc1cccc(-c2ccc(C(F)(F)F)cn2)c1)N1c2nc(-c3cccc(C(F)(F)F)c3)ccc2N2CC[C@H]1C2 [Example 618]

Tryp AVG EC1.5 (μM) [4]: A (A (EC1.5<1 μM))
SMILES: NCCCCCC(=O)NCc1cccc(NC(=O)N2c3nc(-c4cccc(C(F)(F)F)c4)ccc3N3CCC[C@H]2C3)c1 [Example 756]

Continued, compound first:

SMILES: O=C(CCCC[C@@H]1SCC2NC(=O)NC21)NCCCCCC(=O)NCc1ccc(NC(=O)N2c3nc(-c4cccc(C(F)(F)F)c4)ccc3N3CC[C@H]2C3)cc1 (stereo partly shown) [Example 428]
Tryp AVG EC1.5 (μM) [1]: A (A (EC1.5<1 μM))

SMILES: COc1nccnc1NC(=O)N1c2nc(-c3ccnc(C)c3)ccc2N2CC[C@H]1C2 [Example 501]
Tryp AVG EC1.5 (μM) [1]: B (B (EC1.5 1-25 μM))

SMILES: COc1cncc(NC(=O)N2c3nc(-c4ccnc(C)c4)ccc3N3CCC[C@H]2C3)n1 [(9S)-N-(6-methoxypyrazin-2-yl)-5-(2-methylpyridin-4-yl)-1,6,8-triazatricyclo[7.3.1.0 {2,7}]trideca-2(7),3,5-triene-8-carboxamide]
TRP Activity (EC1.5): A (A (EC1.5<1 μM)) | Emax: > 150%

SMILES: O=C(Nc1cc(-c2cnco2)ccn1)N1c2nc(-c3cccc(Cl)c3)ccc2N2C[C@@H](O)[C@H]1C2 [Example 685]
Tryp AVG EC1.5 (μM) [4]: B (B (EC1.5 1-25 μM))

SMILES: Cc1cc(-c2ccc3c(n2)N(C(=O)Nc2cnc(OC[C@@H](O)CO)cn2)[C@H]2CCN3C2)ccn1 [Example 561]
Tryp AVG EC1.5 (μM) [1]: B (B (EC1.5 1-25 μM))

SMILES: Cc1cc(-c2ccc3c(n2)N(C(=O)NC2CCC2)[C@H]2CCN3C2)ccn1 [(9S)-N-cyclobutyl-5-(2-methylpyridin-4-yl)-1,6,8-triazatricyclo[7.2.1.0 {2,7}]dodeca-2(7),3,5-triene-8-carboxamide]
TRP Activity (EC1.5): B (B (EC1.5 1-25 μM)) | Emax: > 150%

SMILES: COc1cc(NC(=O)N2c3nc(-c4cncc(F)c4)ccc3N3CCC2CC3)ncn1 [Example 579]
Tryp AVG EC1.5 (μM) [1]: B (B (EC1.5 1-25 μM))

SMILES: COc1cc(NC(=O)N2c3nc(-c4cccc(N(C)C)c4)ccc3N3CCC[C@H]2C3)ncn1 [Example 385]
Tryp AVG EC1.5 (μM) [3]: A (A (EC1.5<1 μM))

SMILES: O=C(Nc1cnccn1)N1c2nc(N3CCO[C@H](C(F)(F)F)C3)ccc2N2CC[C@H]1C2 [drawing 1226, (9S)-N-(pyrazin-2-yl)-5-[(2S)-2-(trifluoromethyl)morpholin-4-yl]-1,6,8-triazatricyclo[7.2.1.0 {2,7}]dodeca-2(7),3,5-triene-8-carboxamide]
TRP Activity (EC1.5): B (B (EC1.5 1-25 μM)) | Emax: > 150%

SMILES: O=C(CCCCCNC(=O)c1ccc(-c2c3ccc(=O)cc-3oc3cc(O)ccc23)c(C(=O)O)c1)NCc1ccc(NC(=O)N2c3nc(-c4cccc(C(F)(F)F)c4)ccc3N3CC[C@H]2C3)cc1 [Example 547]
Tryp AVG EC1.5 (μM) [1]: C (C (EC1.5>25 μM))

SMILES: Cc1ccncc1-c1ccc2c(n1)N(C(=O)Nc1cccnn1)[C@H]1CCCN2C1 [Example 520]
Tryp AVG EC1.5 (μM) [1]: C (C (EC1.5>25 μM))

SMILES: Cc1ccc(-c2ccc3c(n2)N(C(=O)NC2CCOCC2)[C@H]2CCN3C2)cn1 [(9S)-5-(6-methylpyridin-3-yl)-N-(oxan-4-yl)-1,6,8-triazatricyclo[7.2.1.0^{2,7}]dodeca-2(7),3,5-triene-8-carboxamide]
TRP Activity (EC1.5): C (C (EC1.5>25 μM)) | Emax: < 150%

SMILES: CCc1cnc(NC(=O)N2c3nc(-c4ccc(C)nc4)ccc3N3CC[C@H]2C3)cn1 [(9S)-N-(5-ethylpyrazin-2-yl)-5-(6-methylpyridin-3-yl)-1,6,8-triazatricyclo[7.2.1.0^{2,7}]dodeca-2,4,6-triene-8-carboxamide]
TRP Activity (EC1.5): B (B (EC1.5 1-25 μM)) | Emax: > 150%

SMILES: N#Cc1ccccc1-c1ccc2c(n1)N(C(=O)Nc1cnccn1)[C@H]1CCCN2C1 [Example 450]
Tryp AVG EC1.5 (μM) [1]: B (B (EC1.5 1-25 μM))

SMILES: Cc1cncc(-c2ccc3c(n2)N(C(=O)Nc2ccncn2)[C@H]2CCCN3C2)c1 [Example 517]
Tryp AVG EC1.5 (μM) [1]: A (A (EC1.5<1 μM))

SMILES: O=C(Nc1ccncn1)N1c2nc(-c3cccc(N4CCOCC4)c3)ccc2N2CCC[C@H]1C2 [Example 529]
Tryp AVG EC1.5 (μM) [1]: B (B (EC1.5 1-25 μM))
